What was measured:
S. aureus ATCC 13709 = assay: MIC, NCCLS broth microdilution; assay type: cell-based, Staphylococcus aureus; details: A = S. aureus ATCC 13709 (MSSA)
How it was run: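 Minimal inhibitory concentration determined by NCCLS broth microdilution in microtiter plates per documents M7-A4, M11-A4 and M27-T. S. aureus ATCC 27660 is a methicillin-resistant strain. The antifungal test on C. albicans followed the method recommended in the Manual of Clinical Microbiology (1995).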

S. aureus ATCC 27660 = assay: MIC, NCCLS broth microdilution; assay type: cell-based, Staphylococcus aureus; details: B = S. aureus ATCC 27660 (MRSA)
How it was run: (§1)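 Broth microdilution MIC per NCCLS M7-A4 and M11-A4 for bacteria (MRSA strain for S. aureus ATCC 27660); antifungal MIC per NCCLS M27-T with the Murray 1995 Manual of Clinical Microbiology method. MIC taken as lowest inhibitory concentration.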

E. faecalis ATCC 29212 = assay: MIC, NCCLS broth microdilution; assay type: cell-based, Enterococcus faecalis; details: C = E. faecalis ATCC 29212
How it was run: (§2)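 Broth microdilution, NCCLS M7-A4/M11-A4/M27-T guidelines; read-out MIC. MRSA strain for S. aureus. Candida: Manual of Clinical Microbiology method.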

S. pneumoniae ATCC 49619 = assay: MIC, NCCLS broth microdilution; assay type: cell-based, Streptococcus pneumoniae; details: E = S. pneumoniae ATCC 49619
How it was run: as §2

[1] = tested on: M. catarrhalis (ATCC 25238); assay: MIC, NCCLS broth microdilution; assay type: cell-based, Moraxella (now Branhamella) catarrhalis; details: H = M. catarrhalis (ATCC 25238)
How it was run: as §1

C. albicans ATCC 38247 = assay: MIC, antifungal assay; assay type: cell-based, Candida albicans; details: F = C. albicans ATCC 38247
How it was run: as §1

E. coli ATCC 25922 = assay: MIC, NCCLS broth microdilution; assay type: cell-based, Escherichia coli; details: G = E. coli ATCC 25922
How it was run: as §2

B. cereus ATCC 11778 = assay: MIC, NCCLS broth microdilution; assay type: cell-based, Bacillus cereus; details: D = B. cereus ATCC 11778
How it was run: as §1

Compound | Minimum Inhibitory Concentration (MIC) (S. aureus ATCC 13709) | Minimum Inhibitory Concentration (MIC) (S. aureus ATCC 27660) | Minimum Inhibitory Concentration (MIC) (E. faecalis ATCC 29212) | Minimum Inhibitory Concentration (MIC) (S. pneumoniae ATCC 49619) | Minimum Inhibitory Concentration (MIC) [1] | Minimum Inhibitory Concentration (MIC) (C. albicans ATCC 38247) | Minimum Inhibitory Concentration (MIC) (E. coli ATCC 25922) | Minimum Inhibitory Concentration (MIC) (B. cereus ATCC 11778)
Cn1cc(NC(=O)c2cc3ccccc3cn2)cc1C(=O)Nc1ccc(C(=O)Nc2cn(C)c(C(=O)NCCN3CCCCC3CN3CCCC3)n2)cc1 (stereo not drawn) [Compound A-40] | +++ (MIC ≦ 4 μg/mL) | +++ (MIC ≦ 4 μg/mL) | +++ (MIC ≦ 4 μg/mL) | +++ (MIC ≦ 4 μg/mL) | ++ (4 < MIC < 12 μg/mL) | >32 µg/mL | >32 µg/mL | +++ (MIC ≦ 4 μg/mL)
CCCNCCNC(=O)c1nc(NC(=O)c2ccc(NC(=O)c3cc(NC(=O)c4cc5ccccc5cn4)cn3C)cc2)cn1C [Compound A-37] | +++ (MIC ≦ 4 μg/mL) | +++ (MIC ≦ 4 μg/mL) | +++ (MIC ≦ 4 μg/mL) | +++ (MIC ≦ 4 μg/mL) | +++ (MIC ≦ 4 μg/mL) | >32 µg/mL | +++ (MIC ≦ 4 μg/mL) | +++ (MIC ≦ 4 μg/mL)
COCCN(CCNC(=O)c1nc(NC(=O)c2ccc(NC(=O)c3cc(NC(=O)c4cc5ccccc5cn4)cn3C)cc2)cn1C)CCOC [Compound A-22] | +++ (MIC ≦ 4 μg/mL) | +++ (MIC ≦ 4 μg/mL) | +++ (MIC ≦ 4 μg/mL) | +++ (MIC ≦ 4 μg/mL) | +++ (MIC ≦ 4 μg/mL) | >32 µg/mL | >32 µg/mL | +++ (MIC ≦ 4 μg/mL)
CCCCN1CCN(CCNC(=O)c2nc(NC(=O)c3ccc(NC(=O)c4cc(NC(=O)c5cc6ccccc6cn5)cn4C)cc3)cn2C)CC1 [Compound A-14] | +++ (MIC ≦ 4 μg/mL) | +++ (MIC ≦ 4 μg/mL) | +++ (MIC ≦ 4 μg/mL) | +++ (MIC ≦ 4 μg/mL) | +++ (MIC ≦ 4 μg/mL) | >32 µg/mL | >32 µg/mL | +++ (MIC ≦ 4 μg/mL)
Cn1cc(NC(=O)c2cc3ccccc3cn2)cc1C(=O)Nc1ccc(C(=O)Nc2cn(C)c(C(=O)NCCN3CCN(CCOC(=O)CN)CC3)n2)cc1 [Compound A-62] | +++ (MIC ≦ 4 μg/mL) | +++ (MIC ≦ 4 μg/mL) | +++ (MIC ≦ 4 μg/mL) | +++ (MIC ≦ 4 μg/mL) | +++ (MIC ≦ 4 μg/mL) | >32 µg/mL | >32 µg/mL | +++ (MIC ≦ 4 μg/mL)
Cn1cc(NC(=O)c2cc3c(Cl)cccc3cn2)cc1C(=O)Nc1ccc(C(=O)Nc2cn(C)c(C(=O)NCCN3CCC(O)CC3)n2)cc1 [Compound A-9] | +++ (MIC ≦ 4 μg/mL) | +++ (MIC ≦ 4 μg/mL) | +++ (MIC ≦ 4 μg/mL) | +++ (MIC ≦ 4 μg/mL) | + (12 ≦ MIC ≦ 32 μg/mL) | ++ (4 < MIC < 12 μg/mL) | ++ (4 < MIC < 12 μg/mL) | +++ (MIC ≦ 4 μg/mL)

Next, values leading:

Minimum Inhibitory Concentration (MIC) (S. aureus ATCC 13709) | Minimum Inhibitory Concentration (MIC) (S. aureus ATCC 27660) | Minimum Inhibitory Concentration (MIC) (E. faecalis ATCC 29212) | Minimum Inhibitory Concentration (MIC) (S. pneumoniae ATCC 49619) | Minimum Inhibitory Concentration (MIC) [1] | Minimum Inhibitory Concentration (MIC) (C. albicans ATCC 38247) | Minimum Inhibitory Concentration (MIC) (E. coli ATCC 25922) | Minimum Inhibitory Concentration (MIC) (B. cereus ATCC 11778) | Compound
+++ (MIC ≦ 4 μg/mL) | +++ (MIC ≦ 4 μg/mL) | +++ (MIC ≦ 4 μg/mL) | +++ (MIC ≦ 4 μg/mL) | +++ (MIC ≦ 4 μg/mL) | >32 µg/mL | >32 µg/mL | +++ (MIC ≦ 4 μg/mL) | CCOC(=O)C1CCN(CCNC(=O)c2nc(NC(=O)c3ccc(NC(=O)c4cc(NC(=O)c5cc6ccccc6cn5)cn4C)cc3)cn2C)CC1 [Compound A-48]
+++ (MIC ≦ 4 μg/mL) | +++ (MIC ≦ 4 μg/mL) | +++ (MIC ≦ 4 μg/mL) | +++ (MIC ≦ 4 μg/mL) | +++ (MIC ≦ 4 μg/mL) | + (12 ≦ MIC ≦ 32 μg/mL) | +++ (MIC ≦ 4 μg/mL) | +++ (MIC ≦ 4 μg/mL) | COC1CCN(CCNC(=O)c2nc(NC(=O)c3ccc(NC(=O)c4cc(NC(=O)c5cc6ccccc6cn5)cn4C)cc3)cn2C)CC1 [Compound A-20]
+++ (MIC ≦ 4 μg/mL) | +++ (MIC ≦ 4 μg/mL) | +++ (MIC ≦ 4 μg/mL) | +++ (MIC ≦ 4 μg/mL) | ++ (4 < MIC < 12 μg/mL) | + (12 ≦ MIC ≦ 32 μg/mL) | >32 µg/mL | +++ (MIC ≦ 4 μg/mL) | Cn1cc(NC(=O)c2cc3ccccc3cn2)cc1C(=O)Nc1ccc(C(=O)Nc2cn(C)c(C(=O)NCCNCCN3CCCC3)n2)cc1 [Compound A-36]
+++ (MIC ≦ 4 μg/mL) | +++ (MIC ≦ 4 μg/mL) | +++ (MIC ≦ 4 μg/mL) | +++ (MIC ≦ 4 μg/mL) | ++ (4 < MIC < 12 μg/mL) | >32 µg/mL | >32 µg/mL | +++ (MIC ≦ 4 μg/mL) | Cn1cc(NC(=O)c2cc3ccccc3cn2)cc1C(=O)Nc1ccc(C(=O)Nc2cn(C)c(C(=O)NCCNC3CCCCC3)n2)cc1 [Compound A-35]
+++ (MIC ≦ 4 μg/mL) | +++ (MIC ≦ 4 μg/mL) | +++ (MIC ≦ 4 μg/mL) | +++ (MIC ≦ 4 μg/mL) | +++ (MIC ≦ 4 μg/mL) | >32 µg/mL | >32 µg/mL | +++ (MIC ≦ 4 μg/mL) | Cn1cc(NC(=O)c2cc3ccccc3cn2)cc1C(=O)Nc1ccc(C(=O)Nc2cn(C)c(C(=O)NCCN3CCCC3CO)n2)cc1 (stereo not drawn) [Compound A-81]
+++ (MIC ≦ 4 μg/mL) | +++ (MIC ≦ 4 μg/mL) | +++ (MIC ≦ 4 μg/mL) | +++ (MIC ≦ 4 μg/mL) | +++ (MIC ≦ 4 μg/mL) | >32 µg/mL | >32 µg/mL | +++ (MIC ≦ 4 μg/mL) | COCC(C)NCCNC(=O)c1nc(NC(=O)c2ccc(NC(=O)c3cc(NC(=O)c4cc5ccccc5cn4)cn3C)cc2)cn1C (stereo not drawn) [Compound A-38]
+++ (MIC ≦ 4 μg/mL) | +++ (MIC ≦ 4 μg/mL) | +++ (MIC ≦ 4 μg/mL) | +++ (MIC ≦ 4 μg/mL) | +++ (MIC ≦ 4 μg/mL) | >32 µg/mL | >32 µg/mL | +++ (MIC ≦ 4 μg/mL) | Cn1cc(NC(=O)c2cc3ccccc3cn2)cc1C(=O)Nc1ccc(C(=O)Nc2cn(C)c(C(=O)NCCN3CCN(CC#N)CC3)n2)cc1 [Compound A-58]
+++ (MIC ≦ 4 μg/mL) | +++ (MIC ≦ 4 μg/mL) | +++ (MIC ≦ 4 μg/mL) | +++ (MIC ≦ 4 μg/mL) | +++ (MIC ≦ 4 μg/mL) | >32 µg/mL | >32 µg/mL | +++ (MIC ≦ 4 μg/mL) | Cn1cc(NC(=O)c2cc3ccccc3cn2)cc1C(=O)Nc1ccc(C(=O)Nc2cn(C)c(C(=O)NCCN3CCCC(O)C3)n2)cc1 (stereo not drawn) [Compound A-72]
+++ (MIC ≦ 4 μg/mL) | +++ (MIC ≦ 4 μg/mL) | +++ (MIC ≦ 4 μg/mL) | +++ (MIC ≦ 4 μg/mL) | +++ (MIC ≦ 4 μg/mL) | >32 µg/mL | >32 µg/mL | +++ (MIC ≦ 4 μg/mL) | Cn1cc(NC(=O)c2cc3ccccc3cn2)cc1C(=O)Nc1ccc(C(=O)Nc2cn(C)c(C(=O)NCCN3CCN(S(C)(=O)=O)CC3)n2)cc1 [Compound A-56]
